In patent US20130190289A1, “COMPOUNDS AND METHODS FOR THE TREATMENT OR PREVENTION OF FLAVIVIRUS INFECTIONS” (priority 2010, published 2013):
Like-named read-outs stand apart in the source and are kept apart here.

Key:
[1] = [3H]Thymidine incorporation assay (cell toxicity); details: human
[2] = system: HCV replicon (genotype 1b) in Huh7 cell line ET; assay: microbe, parasite or virus in culture; format: cell-based, HCV genotype 1b; details: Hepatitis C virus
[3] = Huh-7, read-out: HCV-Replicon-(Luci-ET) 1b_IC50
[4] = Huh-7, 96 h, read-out: HCV-Replicon (Luci-ET)-1b_IC50

CN(C(=O)CN(c1cc(C#CC(C)(C)C)sc1C(=O)O)C(=O)[C@H]1CC[C@H](C)CC1)C1CCOCC1 [Compound 43]
CC50 at 72 h [1]: > 100000 nM | IC50 [2, 3]: < 100 nM

CC(C)(C)C#Cc1cc(N(CC(=O)N2CCOCC2)C(=O)c2ccc(Cl)cc2)c(C(=O)O)s1 [Compound 123, 3-[(4-chlorobenzoyl)-(2-morpholino-2-oxo-ethyl)amino]-5-(3,3-dimethylbut-1-ynyl)thiophene-2-carboxylic acid]
CC50 at 72 h [1]: > 100000 nM | IC50 [2, 4]: < 100 nM

CCNC(=O)C[C@H](C)N(c1cc(C#CC(C)(C)C)sc1C(=O)O)C(=O)[C@H]1CC[C@H](C)CC1 [Compound 111, 5-(3,3-Dimethylbut-1-ynyl)-3-[[(1S)-3-(ethylamino)-1-methyl-3-oxo-propyl]-(trans-4-methylcyclohexanecarbonyl)amino]thiophene-2-carboxylic acid]
CC50 at 72 h [1]: > 100000 nM | IC50 [2, 3]: < 100 nM

CC1CN(C(=O)[C@H](C)N(c2cc(C#CC(C)(C)C)sc2C(=O)O)C(=O)[C@H]2CC[C@H](C)CC2)CCO1 (stereo partly drawn) [Compound 49, 5-(3,3-Dimethylbut-1-ynyl)-3-[(trans-4-methylcyclohexanecarbonyl)-[(1S)-1-methyl-2-(2-methylmorpholin-4-yl)-2-oxo-ethyl]amino]thiophene-2-carboxylic acid]
CC50 at 72 h [1]: > 100000 nM | IC50 [2, 3]: < 100 nM

COC[C@H](C(=O)N(C)C)N(c1cc(C#CC(C)(C)C)sc1C(=O)O)C(=O)[C@H]1CC[C@H](C)CC1 [Compound 22, 3-[[(1R)-2-(dimethylamino)-1-(methoxymethyl)-2-oxo-ethyl]-(trans-4-methylcyclohexanecarbonyl)amino]-5-(3,3-dimethylbut-1-ynyl)thiophene-2-carboxylic acid]
CC50 at 72 h [1]: > 100000 nM | IC50 [2, 3]: < 100 nM

CO[C@@H](C)[C@H](C(=O)N1CCOCC1)N(c1cc(C#CC(C)(C)C)sc1C(=O)O)C(=O)[C@H]1CC[C@H](C)CC1 [Compound 72, 5-(3,3-dimethylbut-1-ynyl)-3-[[(1R,2S)-2-methoxy-1-(morpholine-4-carbonyl)propyl]-(trans-4-methylcyclohexanecarbonyl)amino]thiophene-2-carboxylic acid]
CC50 at 72 h [1]: > 100000 nM | IC50 [2, 3]: < 100 nM

CCC[C@@H](C(=O)N(C)C)N(c1cc(C#CC(C)(C)C)sc1C(=O)O)C(=O)[C@H]1CC[C@H](C)CC1 [Compound 68, 5-(3,3-Dimethylbut-1-ynyl)-3-[[(1S)-1-(dimethylcarbamoyl)butyl]-(trans-4-methylcyclohexanecarbonyl)amino]thiophene-2-carboxylic acid]
CC50 at 72 h [1]: 10000 to 100000 nM | IC50 [2, 3]: < 100 nM

O=C(O)c1sc(-c2ccc(Oc3ccccc3)cc2)cc1N(CC(=O)N1CCOCC1)C(=O)c1ccc(Cl)cc1Cl [Compound 152, 3-[(2,4-dichlorobenzoyl)-(2-morpholino-2-oxo-ethyl)amino]-5-(4-phenoxyphenyl)thiophene-2-carboxylic acid]
CC50 at 72 h [1]: 10000 to 100000 nM | IC50 [2, 4]: 1000 to 10000 nM

CC(C)(C)C#Cc1cc(N(C(=O)[C@H]2CC[C@H](C)CC2)[C@H]2CCNC2=O)c(C(=O)O)s1 [Compound 120, 5-(3,3-dimethylbut-1-ynyl)-3-[(trans-4-methylcyclohexanecarbonyl)-[(3S)-2-oxopyrrolidin-3-yl]amino]thiophene-2-carboxylic acid]
IC50 [2, 3]: 100 to 1000 nM

CN(C)CCN(C)C(=O)CN(c1cc(C#CC(C)(C)C)sc1C(=O)O)C(=O)[C@H]1CC[C@H](C)CC1 [Compound 118, 3-[[2-[2-Dimethylaminoethyl(methyl)amino]-2-oxo-ethyl]-(trans-4-methylcyclohexanecarbonyl)amino]-5-(3,3-dimethylbut-1-ynyl)thiophene-2-carboxylic acid]
IC50 [2, 3]: < 100 nM

CN1CCN(C(=O)CN(c2cc(C#CC(C)(C)C)sc2C(=O)O)C(=O)[C@H]2CC[C@H](C)CC2)CC1 [Compound 119, 5-(3,3-dimethylbut-1-ynyl)-3-[(trans-4-methylcyclohexanecarbonyl)-[2-(4-methylpiperazin-1-yl)-2-oxo-ethyl]amino]thiophene-2-carboxylic acid]
IC50 [2, 3]: < 100 nM
